Measurements published in patent publication US20200239587A1, “SENSITIZATION OF TUMORS TO THERAPIES THROUGH ENDOGLIN ANTAGONISM” (Cedars-Sinai Medical Center, priority 2016, published 2020).

How the values were obtained:
[1] = test system: SIRT1 transcription in CW22Rv1; assay: BMP dependent SIRT1 mRNA expression; format: cell-based, human; conditions: 50 ng/ml BMP4, serum free; TRC105 0.05-10 μg/ml
Method: FIG. 20A) Western blot for SIRT1 expression measured in 22Rv1 cells following serum starvation and treatment with 50 ng/ml BMP4 for 4 hours. Phosphorylated Smad1/5 and β-actin was measured concurrently. FIG. 20B) SIRT1 mRNA expression was measured in CW22Rv1 under serum free conditions with 50 ng/ml BMP4, IgG in the context of increasing doses of TRC105 (0.05, 0.1, 0.5, 1, 5, or 10 μg/ml). SIRT1 mRNA expression was normalized to GAPDH and to serum treated control. FIG. 20C) Fold Change of SIRT1 mRNA in benign prostate and prostate cancer patients, obtained from R2-Genomics analysis is expressed (n=95). FIG. 20D) Immunohistochemical localization for SIRT1 expression in benign and prostate cancer tissues is indicated by arrows (Human Protein Atlas). […] FIG. 20E) SIRT1 mRNA expression was measured 72 hours following irradiation of 22Rv1 in a dose range of 0-6 Gy. FIG. 20F) SIRT1 mRNA expression was measured in a time course 0-72 hours following 4 Gy irradiation. […]
Total RNA was extracted using the RNeasy kit (Qiagen). […] Quantitative RT-PCR was performed with 5 replicates using the Step One Real-Time PCR system (Applied Biosystems). […] For RNA-sequencing, Ion Proton AmpliSeq Transcriptome RNA Sequencing was performed achieving an average of 3M reads. We mapped an average of 88% of the reads to the human genome with Torrent Suite version 4.4.2.

[2] = test system: survivin and full length PARP1 in CW22Rv1; assay: Survival proteins after radiation and TRC105; format: cell-based, human; conditions: 4Gy radiation and TRC105, 5 days
p53 in 22Rv1 cells = assay: p53 status after irradiation; format: cell-based, human
Method: In search for an alternate process mediating TRC105 radiation sensitization the inventors examined changes in cell cycle. The impact of radiation on the cell cycle is well described, as causing a G2 cell cycle arrest that undergoes cell cycle redistribution. […] As SIRT1 has previously been reported to regulate p53 stability by de-acetylating p53, the inventors investigated p53 status with TRC105 treatment. 22Rv1 cells were treated with either TRC105 or 200 μM nicotinamide, an inhibitor of SIRT1 activity, prior to irradiation (4Gy). Cells were then collected at 0, 1, and 7 days post radiation to elucidate early and late p53 response. […] While loss-of-function p53 mutations are rare in prostate cancer, 90% of pancreatic cancers have p53 mutations. We therefore used two p53 mutant pancreatic cancer cell lines: HPAF-II and MIAPACA-2 to identify if TRC105 unresponsiveness to radiation was due to p53 loss of functionality.

PGC1α in 22Rv1 cells = assay: PGC1α expression and sub-cellular localization; format: cell-based, human; conditions: 4Gy
Method: (§1) FIGS. 24A-24D depict that PGC1α and mitochondrial biogenesis are regulated by BMP/CD105. 22Rv1 cells were incubated with IgG or TRC105 with or without 4 Gy irradiation. All measurements were made 72 hours post radiation. FIG. 24A) Western blot for whole cell lysate, nuclear and cytoplasmic fractions were independently analyzed for PGC1α expression. Loading controls included β-actin (whole cell), lamin B (nuclear marker), and Rho A (cytoplasm marker). FIG. 24B) Immunofluorescent localization of PGC1α was visualized with DAPI nuclear counterstain. FIG. 24C) mRNA expression of PGC1α target genes, NRF1, MTFA, and CPT1C was measured. mRNA expression was normalized to GAPDH and untreated IgG 0 Gy. FIG. 24D) Mitochondrial DNA (mtDNA) was measured from total DNA extracts and normalized to nuclear DNA and compared to untreated IgG 0 Gy. Data are reported as means+/−S.D. of 3 independent experiments. (***p<0.001, ****p<0.0001).

mtDNA in 22Rv1 cells = assay: Mitochondrial DNA quantitation; format: cell-based, human; conditions: radiation in the presence of TRC105; p<0.0001
Method: as §1

CW22Rv1 xenograft model = assay: Subcutaneous CW22Rv1 xenograft with radiation; format: in vivo, mice
Method: Tumor volumes were longitudinally measured. When tumor average volume reached […] mice were treated with IgG or TRC105 in the context of radiation (2 Gy for 5 days). Tumors were harvested 15 days after the first dose of radiation. FIG. 28A) Tumor volume fold change was normalized to the first dose of radiation (day 1, ***p<0.001). FIG. 28B) Each treatment was compared for doubling of tumor volume as a function of time as depicted in the cumulative incidence plot.
The inventors assessed CD105 dependent radio-resistance using a CW22Rv1 xenograft model. Mice engrafted with subcutaneous CW22Rv1 were given one dose of IgG or TRC105 72 hours prior to radiation and subsequently 3 times a week for the duration of radiation treatment. The irradiated IgG and irradiated TRC105 groups were given a radiation dosage of 2Gy for 5 consecutive days. Fold change in tumor volume was calculated for each group (FIG. 28A).

[3] = test system: tissue recombination orthotopic xenografts of primary human CAF and Rv1; assay: Tissue recombination orthotopic xenografts of primary human CAF and Rv1
Source text: FIG. 13A) Mice were orthotopically grafted with tissue recombinants of CW22Rv1 and CAF. […] FIG. 13B) H&E staining was followed by immune-localization for phosphorylated-histoneH3 (PH-H3), TUNEL, and chromogranin A (ChromA). Scale bar represents 32 μm. The mitotic (PH-H3) and cell death (TUNEL) indexes were plotted. n>5, error bars are mean+/−SD and *p<0.05, **p<0.01, ***p<0.001, compared to control unless otherwise indicated.
Male beige/SCID mice (Envigo), 6-8 or 10-12 weeks old, were used for subrenal capsule or prostatic orthotopic grafting, respectively, as previously described (Banerjee et al., 2014, Oncogene 33, 4924-4931; Hayward et al., 2001, Cancer Res 61, 8135-8142). In accordance with institutional animal care and use committee approval, 2×10^5 CW22Rv1 cells and 6×10^5 stromal cells were suspended in 20 μL type I collagen to be grafted into the subrenal capsule of mice castrated after seven days and sacrificed 21 days after castration. […] Tumor volume was calculated using the modified ellipsoid formula volume3=π/6×(width)2×length.
Paraffin embedded tissues were sectioned (5 μm thick) were subjected to hematoxylin and eosin (H&E) staining and immunohistochemistry as previously reported (Placencio et al., 2008, Cancer research 68, 4709-4718). […] Anti-phosphorylated histone H3 (06-570, Millipore), anti-CD105 (NCL-CD105, Leica Microsystems), anti-Ki67 (ab16667, Abcam), and anti-chromogranin A (sc-13090, Santa Cruz Biotechnology), anti-SFRP1 (601-401-475S, Rockland Immunochemicals), and anti-survivin (2808, Cell Signaling) antibodies were incubated at 4° C. overnight. Secondary antibody development was performed with Dako Cytomation mouse or rabbit kits and visualized using 3,3′-diaminobenzidine tetrahydrochloride substrate. TUNEL staining was performed per manufacturer's protocol (S7100, Millipore). Slides were scanned with a Leica Biosystems Aperio AT. Up to five fields per tissue were quantitated with Fiji (ImageJ) using a custom written macro. Mitotic and death index were quantitated by taking the total number of positively-stained nuclei divided by the total number of nuclei.

TRC105: partially humanized monoclonal antibody that blocks BMP signaling; human-specific CD105 (endoglin) neutralizing antibody from Tracon Pharmaceuticals
BMP dependent induction of SIRT1 transcription [1]: down-regulated when CD105 was antagonized with TRC105 in a dose dependent manner | survival proteins (survivin and full length PARP1) [2]: precipitous down regulation of survival proteins | acetylated and total-p53 (p53 in 22Rv1 cells; by 7 days post radiation): markedly increased | anti-apoptotic protein Bc1-2 (p53 in 22Rv1 cells; prior to 4Gy irradiation): decrease in the anti-apoptotic protein Bc1-2 | p21 (p53 in 22Rv1 cells; prior to 4Gy irradiation): increase in p21 | acetylated p53 (p53 in 22Rv1 cells; treatment prior to 4Gy, nicotinamide 200 μM): increase in acetylated p53 | radiation-induced nuclear translocation of PGC1α (PGC1α in 22Rv1 cells; 72 hours): prevented radiation-induced nuclear translocation of PGC1α | PGC1α expression, whole cell lysate (PGC1α in 22Rv1 cells; IgG or TRC105, 72 hours): no effect on PGC1α expression | mtDNA (mtDNA in 22Rv1 cells): dramatic down regulation of mtDNA | tumor volume (CW22Rv1 xenograft model; TRC105 alone compared to untreated): did not influence tumor volume | tumor doubling time (CW22Rv1 xenograft model; TRC105 with irradiation vs either treatment alone): appreciably inhibited | tumor volume (CW22Rv1 xenograft model; radiation (2Gy for 5 days) and TRC105, p<0.001): significantly lower than the other three experimental groups | NED, chromogranin A staining ([3]; TRC105 added to ATT): reduced | proliferation or cell death ([3]; TRC105 alone compared to control): little change in either proliferation or cell death | tumor size ([3]; TRC105 alone, p<0.05): smaller than vehicle | tumor volume ([3]; TRC105 in enzalutamide treated castrated mice vs vehicle or enzalutamide (p<0.01 and <0.05)): significant reduction in tumor volume | tumor size ([3]; TRC105 treatment in castrated mice): reduced tumor size | proliferation (phosphorylated-histone H3) ([3]; castration, enzalutamide and TRC105 vs control or castrated enzalutamide group (p<0.05 and <0.001)): substantially reduced proliferation | TUNEL staining ([3]; castration, enzalutamide and TRC105 vs control or enzalutamide (p<0.05)): increased TUNEL staining | efficacy of combination of TRC105 with ADT ([3]; prostate cancer models, in vivo): superior to either one alone
